From BigSolDB 2.1

CCCCOc1ccc(C(=O)CCN2CCCCC2)cc1.Cl
solubility (mole fraction)
Conditions	278.15 K	283.15 K	288.15 K	293.15 K	298.15 K	303.15 K	308.15 K	313.15 K	318.15 K	323.15 K
in DMF	0.0201	0.0227	0.0256	0.0291	0.0328	0.0371	0.0421	0.0475	0.0539	0.0608
in THF	0.00088	0.00098	0.00108	0.00119	0.00133	0.00147	0.00162	0.0018	0.002	0.00221
in acetone	0.0121	0.0148	0.018	0.0218	0.0263	0.0321	0.0389	0.0474	0.0574	0.0695
in ethanol	0.062	0.07	0.0786	0.0882	0.0987	0.111	0.124	0.14	0.157	0.175
in ethyl acetate	0.00638	0.00791	0.00983	0.012	0.0146	0.0181	0.0223	0.0276	0.0338	0.0415
in methanol	0.0804	0.0905	0.103	0.116	0.131	0.147	0.166	0.188	0.212	0.238
in n-hexane	0.00084	0.00095	0.00108	0.00122	0.00137	0.00155	0.00175	0.00198	0.00224	0.00253
in water	0.0296	0.0339	0.039	0.045	0.0514	0.059	0.0674	0.0774	0.0888	0.102
